In patent US7074789B2, “Kinase inhibitors” (Amgen Inc., priority 1999, dated 2006):
Read-outs that look alike come from different tables or passages of the source.

Assays:
Format in all cases: biochemical
Lck = biological target: T1, Lck (Homo sapiens, UniProt P06239); test: Kinase inhibition assay (33P transfer), Lck; details: read-out: Lck-1
T1 construct: Kinases are expressed as either kinase domains or full length constructs; made in house
Description: (§1) The inhibitor compounds described herein are screened in the following manner. Kinases suitable for use in the following protocol to determine kinase activity of the compounds described herein include, -but are not limited to: Lck, Lyn, Src, Fyn, Syk, Zap-70, Itk, Tec, Btk, EGFR, ErbB2, Kdr, Flt-1, Flt-3, Tek, c-Met, InsR, and AKT.
(§2) Kinases are expressed as either kinase domains or full length constructs fused to glutathione S-transferase (GST) or polyHistidine tagged fusion proteins in either E. colior Baculovirus-High Five expression systems. […] In some instances, kinases are co-expressed or mixed with purified or partially purified regulatory polypeptides prior to measurement of activity.
(§3) Briefly, The transfer of ^33PO4 from ATP to the synthetic substrates poly(Glu, Tyr) 4:1 or poly(Arg, Ser) 3:1 attached to the bioactive surface of microtiter plates serves as the basis to evaluate enzyme activity. After an incubation period, the amount of phosphate transferred is measured by first washing the plate with 0.5% phosphoric acid, adding liquid scintillant, and then counting in a liquid scintillation detector.

Zap-70 = biological target: T2, Zap-70 (Homo sapiens, UniProt P43403); test: Kinase inhibition assay (33P transfer), Zap-70; details: read-out: Zap-1
T2 construct: Kinases are expressed as either kinase domains or full length constructs; made in house
T2 sequence (P43403 1-619): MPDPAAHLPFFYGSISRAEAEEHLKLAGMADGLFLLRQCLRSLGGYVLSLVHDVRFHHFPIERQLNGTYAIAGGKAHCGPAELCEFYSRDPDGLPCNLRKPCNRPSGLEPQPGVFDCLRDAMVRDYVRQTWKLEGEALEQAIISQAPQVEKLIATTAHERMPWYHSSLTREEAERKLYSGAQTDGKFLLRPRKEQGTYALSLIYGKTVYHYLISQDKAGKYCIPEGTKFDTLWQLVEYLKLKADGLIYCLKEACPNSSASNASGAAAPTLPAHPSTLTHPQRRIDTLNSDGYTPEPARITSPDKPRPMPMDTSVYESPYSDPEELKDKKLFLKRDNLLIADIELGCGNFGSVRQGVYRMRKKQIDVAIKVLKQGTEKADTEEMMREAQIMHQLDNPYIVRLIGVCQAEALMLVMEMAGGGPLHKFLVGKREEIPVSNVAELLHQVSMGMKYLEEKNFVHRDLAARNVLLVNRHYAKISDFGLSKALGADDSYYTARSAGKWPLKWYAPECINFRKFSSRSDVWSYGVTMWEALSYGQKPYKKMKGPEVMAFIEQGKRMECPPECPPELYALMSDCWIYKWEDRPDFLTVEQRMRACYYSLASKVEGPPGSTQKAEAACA
Description: as §1, §2, §3

Itk = biological target: T3, Itk (Homo sapiens, UniProt Q08881); test: Kinase inhibition assay (33P transfer), Itk; details: read-out: Itk-1
T3 construct: Kinases are expressed as either kinase domains or full length constructs; made in house
T3 sequence (Q08881 1-620): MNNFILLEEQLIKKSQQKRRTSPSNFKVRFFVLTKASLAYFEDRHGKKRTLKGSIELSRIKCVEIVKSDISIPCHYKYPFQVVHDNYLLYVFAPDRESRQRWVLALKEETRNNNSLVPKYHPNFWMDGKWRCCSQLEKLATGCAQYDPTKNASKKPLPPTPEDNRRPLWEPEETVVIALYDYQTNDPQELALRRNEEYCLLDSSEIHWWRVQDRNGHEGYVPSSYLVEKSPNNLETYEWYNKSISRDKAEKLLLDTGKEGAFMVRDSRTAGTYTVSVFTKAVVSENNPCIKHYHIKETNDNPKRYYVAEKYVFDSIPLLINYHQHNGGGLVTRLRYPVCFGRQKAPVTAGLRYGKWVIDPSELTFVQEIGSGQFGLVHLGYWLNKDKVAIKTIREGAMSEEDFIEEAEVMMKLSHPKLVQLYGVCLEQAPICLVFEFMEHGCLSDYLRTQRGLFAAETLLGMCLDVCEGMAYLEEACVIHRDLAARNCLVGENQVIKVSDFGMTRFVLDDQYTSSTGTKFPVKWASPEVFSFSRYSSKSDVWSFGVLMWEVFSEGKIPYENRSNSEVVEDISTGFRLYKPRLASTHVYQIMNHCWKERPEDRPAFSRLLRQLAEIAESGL
Description: as §1
(§4) Kinases are expressed as either kinase domains or full length constructs fused to glutathione S-transferase (GST) or polyHistidine tagged fusion proteins in either E. colior Baculovirus-High Five expression systems. They are purified to near homogeneity by affinity chromatography essentially as previously described (Lehr et al., 1996; Gish et al., 1995). In some instances, kinases are co-expressed or mixed with purified or partially purified regulatory polypeptides prior to measurement of activity.
as §3, with “Kinase activity and inhibition are measured essentially by established protocols (Braunwalder et al., 1996). Briefly,” for “Briefly,”, “detector. The IC50 is determined by the concentration of compound that causes a 50% reduction in the amount of […] incorporated onto the substrate bound to the plate.” for “detector.”

EGFR = biological target: T4, EGFR (Homo sapiens, UniProt P00533); test: Kinase inhibition assay (33P transfer), EGFR; details: Table 2, kinase inhibition class; read-out: EGFR-1
T4 construct: Kinases are expressed as either kinase domains or full length constructs; made in house
Description: as §1, §4
as §3, with “Kinase activity and inhibition are measured essentially by established protocols (Braunwalder et al., 1996). Briefly,” for “Briefly,”, “detector. The IC50 is determined by the concentration of compound that causes a 50% reduction in the amount of […] incorporated onto the substrate bound to the plate.” for “detector.”

Kdr = biological target: T5, Kdr (Homo sapiens, UniProt P35968); test: Kinase inhibition assay (33P transfer), Kdr; details: read-out: KDR-1
T5 construct: Kinases are expressed as either kinase domains or full length constructs; made in house
Description: as §1, §2, §3

c-Met = biological target: T6, c-Met (Homo sapiens, UniProt P08581); test: Kinase inhibition assay (33P transfer), c-Met; details: Table 2, kinase inhibition class; read-out: Met-1
T6 construct: Kinases are expressed as either kinase domains or full length constructs; made in house
Description: as §1, §4
as §3, with “Kinase activity and inhibition are measured essentially by established protocols (Braunwalder et al., 1996). Briefly,” for “Briefly,”, “detector. The IC50 is determined by the concentration of compound that causes a 50% reduction in the amount of […] incorporated onto the substrate bound to the plate.” for “detector.”

AKT = biological target: T7, AKT (Homo sapiens, UniProt Q9Y243); test: Kinase inhibition assay (33P transfer), AKT; details: Table 2, kinase inhibition class; read-out: AKT3-1
T7 construct: Kinases are expressed as either kinase domains or full length constructs; made in house
Description: as §1, §2, §3

T6 sequence (P08581 25-1390): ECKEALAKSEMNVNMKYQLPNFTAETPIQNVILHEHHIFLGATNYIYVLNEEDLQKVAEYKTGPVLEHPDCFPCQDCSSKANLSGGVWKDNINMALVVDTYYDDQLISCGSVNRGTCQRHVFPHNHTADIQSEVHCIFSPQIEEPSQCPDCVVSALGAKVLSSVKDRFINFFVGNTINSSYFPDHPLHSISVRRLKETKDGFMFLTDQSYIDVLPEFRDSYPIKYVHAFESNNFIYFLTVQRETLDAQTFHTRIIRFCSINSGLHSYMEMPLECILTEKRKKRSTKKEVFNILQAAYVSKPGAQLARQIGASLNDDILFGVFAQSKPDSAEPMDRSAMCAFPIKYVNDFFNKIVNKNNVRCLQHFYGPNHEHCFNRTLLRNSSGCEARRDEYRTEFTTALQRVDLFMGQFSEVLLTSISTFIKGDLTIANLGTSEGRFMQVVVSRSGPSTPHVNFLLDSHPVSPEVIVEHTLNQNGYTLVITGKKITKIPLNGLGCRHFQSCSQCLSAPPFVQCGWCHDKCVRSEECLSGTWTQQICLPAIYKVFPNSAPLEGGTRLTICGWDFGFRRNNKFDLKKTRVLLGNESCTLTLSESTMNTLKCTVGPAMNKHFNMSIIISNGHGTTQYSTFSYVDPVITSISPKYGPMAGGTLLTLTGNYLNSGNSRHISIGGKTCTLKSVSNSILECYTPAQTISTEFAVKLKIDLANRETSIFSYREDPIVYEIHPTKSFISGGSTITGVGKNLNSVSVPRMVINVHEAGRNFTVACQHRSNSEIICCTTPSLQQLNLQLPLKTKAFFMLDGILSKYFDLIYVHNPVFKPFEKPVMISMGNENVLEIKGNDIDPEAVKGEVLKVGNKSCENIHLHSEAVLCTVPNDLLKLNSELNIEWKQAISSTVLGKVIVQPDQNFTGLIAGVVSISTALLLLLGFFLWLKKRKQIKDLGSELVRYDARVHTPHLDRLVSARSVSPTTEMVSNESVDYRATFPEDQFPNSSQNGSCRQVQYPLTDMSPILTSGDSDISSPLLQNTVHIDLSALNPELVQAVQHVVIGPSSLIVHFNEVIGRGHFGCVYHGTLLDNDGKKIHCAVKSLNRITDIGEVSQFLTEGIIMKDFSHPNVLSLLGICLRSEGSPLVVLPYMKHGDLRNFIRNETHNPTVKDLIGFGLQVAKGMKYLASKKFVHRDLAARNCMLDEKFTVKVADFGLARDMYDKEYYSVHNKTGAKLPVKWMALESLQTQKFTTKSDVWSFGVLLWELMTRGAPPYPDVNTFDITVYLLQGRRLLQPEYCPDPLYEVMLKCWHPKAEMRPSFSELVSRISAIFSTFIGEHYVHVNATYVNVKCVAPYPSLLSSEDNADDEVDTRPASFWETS
T1 sequence (P06239 whole entry, species assumed, the tested form may be a part): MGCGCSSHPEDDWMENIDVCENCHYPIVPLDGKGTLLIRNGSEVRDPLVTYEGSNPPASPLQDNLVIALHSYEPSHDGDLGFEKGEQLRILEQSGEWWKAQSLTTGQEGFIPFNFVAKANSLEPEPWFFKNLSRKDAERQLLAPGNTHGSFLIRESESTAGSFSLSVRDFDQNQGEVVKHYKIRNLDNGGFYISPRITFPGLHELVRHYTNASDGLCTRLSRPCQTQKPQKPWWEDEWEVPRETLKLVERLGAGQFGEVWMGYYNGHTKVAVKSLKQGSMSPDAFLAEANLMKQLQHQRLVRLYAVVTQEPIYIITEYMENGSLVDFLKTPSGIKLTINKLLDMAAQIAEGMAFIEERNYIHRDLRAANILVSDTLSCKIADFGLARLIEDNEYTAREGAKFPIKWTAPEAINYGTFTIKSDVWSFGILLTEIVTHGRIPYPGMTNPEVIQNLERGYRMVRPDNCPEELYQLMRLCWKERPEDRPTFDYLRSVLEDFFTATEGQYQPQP
T5 sequence (P35968 20-1356, species assumed): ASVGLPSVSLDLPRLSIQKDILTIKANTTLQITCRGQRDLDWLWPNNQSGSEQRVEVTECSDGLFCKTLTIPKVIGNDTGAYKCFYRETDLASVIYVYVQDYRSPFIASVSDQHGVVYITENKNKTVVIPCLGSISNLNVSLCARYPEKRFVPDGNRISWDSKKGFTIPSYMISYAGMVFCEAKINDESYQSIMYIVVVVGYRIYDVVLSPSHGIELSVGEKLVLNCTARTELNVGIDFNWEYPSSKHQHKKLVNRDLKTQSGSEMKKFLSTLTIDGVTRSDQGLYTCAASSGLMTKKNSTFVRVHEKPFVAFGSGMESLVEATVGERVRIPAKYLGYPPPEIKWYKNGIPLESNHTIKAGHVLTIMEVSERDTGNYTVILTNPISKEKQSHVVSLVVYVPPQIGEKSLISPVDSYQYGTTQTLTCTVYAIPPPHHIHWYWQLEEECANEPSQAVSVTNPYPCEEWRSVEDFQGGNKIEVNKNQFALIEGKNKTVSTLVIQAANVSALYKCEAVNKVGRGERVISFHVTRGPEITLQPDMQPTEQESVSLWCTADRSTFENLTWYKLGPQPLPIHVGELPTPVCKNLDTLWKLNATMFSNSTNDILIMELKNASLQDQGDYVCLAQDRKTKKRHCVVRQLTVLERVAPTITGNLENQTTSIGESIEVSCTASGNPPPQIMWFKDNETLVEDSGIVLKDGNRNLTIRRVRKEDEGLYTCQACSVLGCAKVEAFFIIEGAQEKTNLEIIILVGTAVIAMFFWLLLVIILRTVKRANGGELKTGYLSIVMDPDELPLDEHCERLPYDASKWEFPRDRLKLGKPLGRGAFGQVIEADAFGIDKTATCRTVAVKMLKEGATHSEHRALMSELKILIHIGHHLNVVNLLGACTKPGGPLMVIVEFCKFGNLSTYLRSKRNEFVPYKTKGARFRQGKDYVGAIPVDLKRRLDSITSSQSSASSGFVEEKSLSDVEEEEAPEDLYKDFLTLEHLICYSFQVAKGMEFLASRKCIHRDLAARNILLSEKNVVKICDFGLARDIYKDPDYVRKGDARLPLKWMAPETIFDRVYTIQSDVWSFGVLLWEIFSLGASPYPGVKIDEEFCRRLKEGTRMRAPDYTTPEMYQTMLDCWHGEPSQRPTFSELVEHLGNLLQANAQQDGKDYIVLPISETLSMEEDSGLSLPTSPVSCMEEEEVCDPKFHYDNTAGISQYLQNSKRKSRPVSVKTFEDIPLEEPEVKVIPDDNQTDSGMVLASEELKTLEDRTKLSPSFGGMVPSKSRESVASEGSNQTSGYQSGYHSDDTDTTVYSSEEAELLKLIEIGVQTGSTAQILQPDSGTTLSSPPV
T7 sequence (Q9Y243 whole entry, the tested form may be a part): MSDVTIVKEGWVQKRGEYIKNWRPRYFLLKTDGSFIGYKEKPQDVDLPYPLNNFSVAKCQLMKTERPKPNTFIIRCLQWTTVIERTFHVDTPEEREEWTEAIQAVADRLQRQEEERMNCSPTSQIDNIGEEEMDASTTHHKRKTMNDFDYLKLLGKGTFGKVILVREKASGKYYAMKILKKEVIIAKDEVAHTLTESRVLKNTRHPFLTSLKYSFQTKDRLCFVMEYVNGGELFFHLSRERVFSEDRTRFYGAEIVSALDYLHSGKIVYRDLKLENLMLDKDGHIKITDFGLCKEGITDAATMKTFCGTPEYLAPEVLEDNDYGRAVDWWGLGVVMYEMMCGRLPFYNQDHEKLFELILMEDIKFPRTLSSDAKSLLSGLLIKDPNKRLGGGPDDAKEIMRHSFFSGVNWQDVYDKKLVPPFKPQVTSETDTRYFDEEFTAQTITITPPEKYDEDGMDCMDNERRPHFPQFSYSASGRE
T4 sequence (P00533 25-1210, species assumed): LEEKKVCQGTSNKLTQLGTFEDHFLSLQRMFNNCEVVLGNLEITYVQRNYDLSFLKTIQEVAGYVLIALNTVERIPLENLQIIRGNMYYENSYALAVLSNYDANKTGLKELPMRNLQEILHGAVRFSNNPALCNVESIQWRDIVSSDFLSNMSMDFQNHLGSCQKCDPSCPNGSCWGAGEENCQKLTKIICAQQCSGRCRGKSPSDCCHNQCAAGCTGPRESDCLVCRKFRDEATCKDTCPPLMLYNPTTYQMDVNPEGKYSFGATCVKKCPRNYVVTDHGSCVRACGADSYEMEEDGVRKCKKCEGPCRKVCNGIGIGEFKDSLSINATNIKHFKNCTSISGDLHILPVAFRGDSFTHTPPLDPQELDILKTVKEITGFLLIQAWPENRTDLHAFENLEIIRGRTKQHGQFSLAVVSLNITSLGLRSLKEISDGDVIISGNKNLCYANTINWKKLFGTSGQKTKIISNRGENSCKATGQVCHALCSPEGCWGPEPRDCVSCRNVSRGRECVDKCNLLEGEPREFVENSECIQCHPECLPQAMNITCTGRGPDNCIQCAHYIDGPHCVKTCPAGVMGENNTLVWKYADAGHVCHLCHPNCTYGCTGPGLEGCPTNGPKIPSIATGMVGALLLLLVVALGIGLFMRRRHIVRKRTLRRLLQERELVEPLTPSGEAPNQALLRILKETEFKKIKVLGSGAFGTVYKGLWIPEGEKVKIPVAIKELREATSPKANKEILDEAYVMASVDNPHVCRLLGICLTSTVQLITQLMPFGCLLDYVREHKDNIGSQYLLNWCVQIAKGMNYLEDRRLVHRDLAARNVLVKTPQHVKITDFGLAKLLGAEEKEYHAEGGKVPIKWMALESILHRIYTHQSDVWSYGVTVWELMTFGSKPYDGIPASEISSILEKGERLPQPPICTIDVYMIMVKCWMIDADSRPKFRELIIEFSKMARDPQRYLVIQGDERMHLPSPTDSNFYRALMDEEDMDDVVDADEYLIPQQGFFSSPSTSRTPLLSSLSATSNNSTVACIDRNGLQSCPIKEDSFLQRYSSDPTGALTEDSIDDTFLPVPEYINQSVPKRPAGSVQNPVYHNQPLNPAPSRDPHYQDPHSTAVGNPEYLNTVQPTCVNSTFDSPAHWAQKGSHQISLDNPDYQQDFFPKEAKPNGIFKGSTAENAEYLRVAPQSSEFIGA

Compound	IC50 (Lck) [µM]	IC50 (Zap-70) [µM]	IC50 (Itk) [µM]	IC50 (EGFR) [µM]	IC50 (Kdr) [µM]	IC50 (c-Met) [µM]	IC50 (AKT) [µM]	IC50 (Lck; Table 3) [µM]	IC50 (Zap-70; Table 3) [µM]	IC50 (Itk; Table 3) [µM]	IC50 (Kdr; Table 3) [µM]
CC(C)(C)c1cc(Nc2ncnc(Nc3ccc(CO)cc3)n2)[nH]n1 [Compound 501]	1.18 to 7.07	> 13.3	1.18 to 7.07	1.18 to 7.07	1.18 to 7.07	< 1.18	> 13.3				
O=c1[nH]c2ccccc2n1-c1ncnc(Nc2ccc(Cl)cc2)n1 [Compound 458]				> 13.3		7.08 to 10.3	> 13.3	> 13.3	> 13.3	> 13.3	1.18 to 7.08
COc1cc(Nc2ncnc(-n3c(NC(=O)c4ccccc4)nc4ccccc43)n2)cc(OC)c1OC [Compound 435]				> 9.04		> 9.04	> 9.04	> 9.04	> 9.04	> 9.04	> 9.04
COc1ccc(-c2cn[nH]c2Nc2ncnc(Nc3cc(OC)c(OC)c(OC)c3)n2)cc1OC [Compound 470]	5.01 to 7.3	> 9.38	0.834 to 5.01	7.3 to 9.38	> 9.38	> 9.38	> 9.38				
CN(C)c1ccc(Nc2ncnc(-n3c(N)nc4ccccc43)n2)cc1 [Compound 527]	1.15 to 6.93	> 13	1.15 to 6.93	6.93 to 10.1	< 1.15	1.15 to 6.93	> 13				
Nc1ncnc(Nc2cccc(C(F)(F)F)c2)n1 [Compound 1015]				> 17.6		> 17.6		> 17.6	> 17.6	> 17.6	> 17.6
Cc1cccc(Nc2ncnc(-n3cccc3)n2)c1C [Compound 281]				> 17		> 17		> 17	> 17	> 17	> 17
Cc1ccc(Nc2ncnc(-n3cccc3)n2)cc1Cl [Compound 276]				> 15.7		> 15.7		> 15.7	> 15.7	> 15.7	1.4 to 8.4
Nc1ncnc(Nc2nc(-c3ccccc3)cs2)n1 [Compound 1020]				> 16.6		> 16.6		> 16.6	> 16.6	> 16.6	> 16.6
FC(F)(F)c1cccc(Nc2ncnc(-n3cccc3)n2)c1 [Compound 277]				> 14.7		> 14.7		> 14.7	> 14.7	> 14.7	1.31 to 7.86
Cc1ccc(Nc2ncnc(N)n2)cc1 [Compound 1017]				> 22.4		> 22.4		> 22.4	> 22.4	> 22.4	> 22.4
ClCc1ccccc1Nc1ncnc(-n2cccc2)n1 [Compound 278]				> 15.7		> 15.7		> 15.7	> 15.7	> 15.7	> 15.7
Fc1ccc(Nc2ncnc(-n3cccc3)n2)cc1 [Compound 284]				> 17.6		> 17.6		> 17.6	> 17.6	> 17.6	13.7 to 17.6
Cc1cc(Br)ccc1Nc1ncnc(-n2cccc2)n1 [Compound 282]				> 13.6		7.27 to 10.6		> 13.6	> 13.6	> 13.6	> 13.6
FC(F)(F)c1ccc(Cl)c(Nc2ncnc(-n3cccc3)n2)c1 [Compound 283]				> 13.2		> 13.2		> 13.2	> 13.2	> 13.2	> 13.2
Clc1cccc(Nc2ncnc(-n3cccc3)n2)c1 [Compound 275]				> 16.6		12.9 to 16.6		> 16.6	> 16.6	> 16.6	1.47 to 8.83
COc1ccc(Nc2ncnc(-n3cccc3)n2)c(OC)c1 [Compound 273]				> 15.1		> 15.1		> 15.1	> 15.1	> 15.1	> 15.1
Clc1ccccc1Nc1ncnc(-n2cccc2)n1 [Compound 280]				> 16.6		> 16.6		> 16.6	> 16.6	> 16.6	> 16.6
Clc1cc(Cl)cc(Nc2ncnc(-n3cccc3)n2)c1 [Compound 274]				> 14.7		> 14.7		> 14.7	> 14.7	> 14.7	1.31 to 7.84
Brc1ccc(Nc2ncnc(-n3cccc3)n2)cc1 [Compound 272]				> 14.2		> 14.2		> 14.2	7.59 to 11.1	> 14.2	> 14.2
Nc1ncnc(Nc2cccc(Nc3ncnc(N)n3)c2)n1 [Compound 1027]				> 15.2		> 15.2		> 15.2	> 15.2	> 15.2	> 15.2
COc1ccccc1Nc1ncnc(-n2cccc2)n1 [Compound 279]				> 16.8		> 16.8		> 16.8	> 16.8	> 16.8	> 16.8
Nc1ncnc(Nc2ccc(F)cc2F)n1 [Compound 1014]				> 20.2		> 20.2		> 20.2	> 20.2	> 20.2	> 20.2
Nc1ncnc(Nc2nc(-c3ccc(Cl)cc3)cs2)n1 [Compound 1016]				> 14.8		> 14.8		> 14.8	> 14.8	> 14.8	> 14.8
Nc1ncnc(Nc2cccc(Cl)c2)n1 [Compound 1019]				> 20.3		> 20.3		> 20.3	> 20.3	> 20.3	10.8 to 15.8
Nc1ncnc(Nc2cc(Cl)ccc2O)n1 [Compound 1022]				> 18.9		> 18.9		> 18.9	> 18.9	> 18.9	> 18.9
